In the test the test system is BDF1 mice, B16 melanoma ip, median survival T/C. In words: NCI In Vivo Anticancer Drug Screen. Data for tumor model B16 Melanoma (intraperitoneal) in B6D2F1 (BDF1) mice. Conditions: endpoint: median survival time, higher = longer survival. The procedure, abridged: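 Each result divides a survival or tumor-size measurement in the compound-treated group by the same measurement in the vehicle group.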

[1] abbreviates: dose: 75.0 mg/kg/injection, schedule: Q01DX009 (ip), vehicle: Klucel (hydroxypropylcellulose) (HPC).
Setting [2] is: dose: 150.0 mg/kg/injection, schedule: Q01DX009 (ip), vehicle: Klucel (hydroxypropylcellulose) (HPC).
Setting [3] is: dose: 300.0 mg/kg/injection, schedule: Q01DX009 (ip), vehicle: Klucel (hydroxypropylcellulose) (HPC).
The mark [4] stands for this setting: dose: 100.0 mg/kg/injection, schedule: Q01DX009 (ip), vehicle: Klucel (hydroxypropylcellulose) (HPC).
Where [5] appears, read: dose: 200.0 mg/kg/injection, schedule: Q01DX009 (ip), vehicle: Klucel (hydroxypropylcellulose) (HPC).
[6] abbreviates: dose: 3.12 mg/kg/injection, schedule: Q01DX009 (ip), vehicle: saline with Tween-80.
The mark [7] stands for this setting: dose: 6.25 mg/kg/injection, schedule: Q01DX009 (ip), vehicle: saline with Tween-80.
[8] abbreviates: dose: 50.0 mg/kg/injection, schedule: Q01DX009 (ip), vehicle: Klucel (hydroxypropylcellulose) (HPC).
The mark [9] stands for this setting: dose: 12.5 mg/kg/injection, schedule: Q01DX009 (ip), vehicle: saline with Tween-80.
[10] abbreviates: dose: 25.0 mg/kg/injection, schedule: Q01DX009 (ip), vehicle: saline with Tween-80.

16 molecules from PubChem BioAssay AID192 (DTP/NCI, 2004) can be followed below.

Where “and” joins values, the source holds several entries; their conditions need not be identical. Identical values can stand only once. Toxic doses and inconclusive results are not listed. Peptide text beside a SMILES is read from it. * marks the point of attachment. Cbz = O=C(OCc1ccccc1)*

Regarding `Cc1c(N)nc([C@H](CC(N)=O)NC[C@H](N)C(N)=O)nc1C(=O)N[C@H](C(=O)N[C@H](C)[C@@H](O)[C@H](C)C(=O)N[C@H](C(=O)NCCc1nc(-c2nc(C(=O)NCCC[S+](C)C)cs2)cs1)[C@@H](C)O)C(OC1OC(CO)C(O)C(O)C1OC1OC(CO)C(O)C(OC(N)=O)C1O)c1cnc[nH]1` (stereo partly specified), the T/C is, setting by setting: (dose: 1.0 mg/kg/injection, schedule: Q01DX009 (ip), vehicle: clinical formulation) 114 % of control; (dose: 2.0 mg/kg/injection, schedule: Q01DX009 (ip), vehicle: clinical formulation) 121 % of control; (dose: 3.9 mg/kg/injection, schedule: Q01DX009 (ip), vehicle: saline) 102 % of control; (dose: 4.0 mg/kg/injection, schedule: Q01DX009 (ip), vehicle: clinical formulation) 120 % of control; (dose: 7.8 mg/kg/injection, schedule: Q01DX009 (ip), vehicle: saline) 102 % of control; (dose: 8.0 mg/kg/injection, schedule: Q01DX009 (ip), vehicle: clinical formulation) 124 % of control. Besides, the T/C reads like this: (dose: 15.6 mg/kg/injection, schedule: Q01DX009 (ip), vehicle: saline) 102 % of control; (dose: 16.0 mg/kg/injection, schedule: Q01DX009 (ip), vehicle: clinical formulation) 123 % of control; (dose: 31.3 mg/kg/injection, schedule: Q01DX009 (ip), vehicle: saline) 109 % of control.
With `COCC(=O)CC(C)=O`, the T/C was 122 % of control under setting [1], 113 % of control under setting [2] and 105 % of control under setting [3].
Take `O=C(Nc1ccc(Br)cc1)c1ccc(Cl)c(Cl)c1`: the T/C is 118 % of control under setting [4]; 114 % of control under setting [5]; 114 % of control (dose: 400.0 mg/kg/injection, schedule: Q01DX009 (ip), vehicle: Klucel (hydroxypropylcellulose) (HPC)).
With `O=[N+]([O-])c1cc(Br)cc(Br)c1S(=O)(=O)O`, the T/C runs as follows: (dose: 100.0 mg/kg/injection, schedule: Q04DX003 (ip), vehicle: saline) 100 % of control; (dose: 200.0 mg/kg/injection, schedule: Q04DX003 (ip), vehicle: saline) 108 % of control; (dose: 400.0 mg/kg/injection, schedule: Q04DX003 (ip), vehicle: saline) 104 % of control.
As to `Nc1nc(N)c2c(ccc3c2ccn3Cc2cccc([N+](=O)[O-])c2)n1`, the T/C was 90 % of control (dose: 1.56 mg/kg/injection, schedule: Q01DX009 (ip), vehicle: saline with Tween-80); 100 % of control under setting [6]; 119 % of control under setting [7].
For `CCc1ccccc1NC(=O)c1cccc(C(=O)Nc2ccccc2CC)c1`, the T/C is, setting by setting: under setting [8], 102 % of control; under setting [4], 105 % of control; under setting [5], 102 % of control.
Turning to `CCCCCCCCCCCCCCCc1ccc(C(=O)C[n+]2ccccc2)cc1`, the T/C is 102 % of control under setting [6], 100 % of control under setting [7], 95 % of control under setting [9] and 93 % of control under setting [10].
In the case of `NC(=O)C(Cc1ccccc1)NC(=O)C(Cc1ccccc1)NC(=O)C(Cc1ccccc1)NC(=O)OCc1ccccc1` (stereo not drawn) (Cbz-Phe-Phe-Phe-NH2; configuration not given here), the T/C under setting [6] was 100 % of control, the T/C under setting [7] is 89 % of control, the T/C under setting [9] was 96 % of control and the T/C under setting [10] is 91 % of control.
On to `CN(C)CCCNC(=S)S`, for which the T/C is, setting by setting: (dose: 6.25 mg/kg/injection, schedule: Q01DX009 (ip), vehicle: saline) 100 % of control; (dose: 12.5 mg/kg/injection, schedule: Q01DX009 (ip), vehicle: saline) 97 % of control; (dose: 12.5 mg/kg/injection, schedule: Q04DX003 (ip), vehicle: saline) 111 % of control; (dose: 25.0 mg/kg/injection, schedule: Q01DX009 (ip), vehicle: saline) 110 % of control; (dose: 25.0 mg/kg/injection, schedule: Q04DX003 (ip), vehicle: saline) 111 % of control; (dose: 50.0 mg/kg/injection, schedule: Q04DX003 (ip), vehicle: saline) 94 % of control.
On to `COC(=O)[c-]1[c-][c-][c-][c-]1.COC(=O)[c-]1[c-][c-][c-][c-]1.[Fe]`, for which the T/C reads like this: (dose: 18.0 mg/kg/injection, schedule: Q01DX009 (ip), vehicle: Klucel (hydroxypropylcellulose) (HPC)) 95 % of control and 103 % of control; (dose: 28.75 mg/kg/injection, schedule: Q01DX009 (ip), vehicle: Klucel (hydroxypropylcellulose) (HPC)) 104 % of control and 106 % of control; (dose: 33.75 mg/kg/injection, schedule: Q04DX003 (ip), vehicle: Klucel (hydroxypropylcellulose) (HPC)) 114 % of control; (dose: 45.0 mg/kg/injection, schedule: Q01DX009 (ip), vehicle: Klucel (hydroxypropylcellulose) (HPC)) 103 % of control and 118 % of control; (dose: 67.5 mg/kg/injection, schedule: Q04DX003 (ip), vehicle: Klucel (hydroxypropylcellulose) (HPC)) 92 % of control.
As for `Cc1cccc(-c2nc3cc(Cl)ccc3c(=O)o2)c1`, the T/C was 100 % of control (dose: 25.0 mg/kg/injection, schedule: Q01DX009 (ip), vehicle: Klucel (hydroxypropylcellulose) (HPC)); 103 % of control (dose: 25.0 mg/kg/injection, schedule: Q04DX003 (ip), vehicle: Klucel (hydroxypropylcellulose) (HPC)); 107 % of control under setting [8]; 103 % of control (dose: 50.0 mg/kg/injection, schedule: Q04DX003 (ip), vehicle: Klucel (hydroxypropylcellulose) (HPC)); 100 % of control under setting [4]; 106 % of control (dose: 100.0 mg/kg/injection, schedule: Q04DX003 (ip), vehicle: Klucel (hydroxypropylcellulose) (HPC)).
For the molecule `CN(C)CC1CCCCN1` (stereo unspecified), the T/C by setting is: (dose: 50.0 mg/kg/injection, schedule: Q01DX009 (ip), vehicle: saline) 100 % of control; (dose: 100.0 mg/kg/injection, schedule: Q01DX009 (ip), vehicle: saline) 100 % of control; (dose: 200.0 mg/kg/injection, schedule: Q01DX009 (ip), vehicle: saline) 100 % of control.
On to `Cc1cccc(NS(=O)(=O)c2ccc(Cl)cc2)c1C`, for which the T/C under setting [1] is 91 % of control, the T/C under setting [2] is 95 % of control and the T/C under setting [3] was 90 % of control.
Take `Nc1nc(SCc2ccccc2F)c2ncn(C3OC(CO)C(O)C3O)c2n1` (stereo unspecified): the T/C by setting is: under setting [6], 105 % of control; under setting [7], 116 % of control; under setting [9], 122 % of control; under setting [10], 95 % of control.
Regarding `Nc1cc2c(c[n+](CCCCCCCC[n+]3cc4c5ccccc5c(N)cc4c4ccccc43)c3ccccc23)c2ccccc12`, the T/C runs as follows: (dose: 0.78 mg/kg/injection, schedule: Q01DX009 (ip), vehicle: distilled water + Tween-80) 120 % of control; (dose: 1.25 mg/kg/injection, schedule: Q01DX009 (ip), vehicle: saline with Tween-80) 118 % of control; (dose: 1.56 mg/kg/injection, schedule: Q04DX003 (ip), vehicle: distilled water + Tween-80) 114 % of control; (dose: 2.5 mg/kg/injection, schedule: Q01DX009 (ip), vehicle: saline with Tween-80) 123 % of control; (dose: 2.59 mg/kg/injection, schedule: Q01DX009 (ip), vehicle: distilled water + Tween-80) 156 % of control; (dose: 3.12 mg/kg/injection, schedule: Q04DX003 (ip), vehicle: distilled water + Tween-80) 108 % of control. For the same molecule, the T/C is, setting by setting: (dose: 4.32 mg/kg/injection, schedule: Q01DX009 (ip), vehicle: distilled water + Tween-80) 167 % of control; (dose: 6.25 mg/kg/injection, schedule: Q01DX009 (ip), vehicle: distilled water + Tween-80) 162 % of control; (dose: 7.2 mg/kg/injection, schedule: Q01DX009 (ip), vehicle: distilled water + Tween-80) 180 % of control; (dose: 10.0 mg/kg/injection, schedule: Q01DX009 (ip), vehicle: saline with Tween-80) 166 % of control; (dose: 12.0 mg/kg/injection, schedule: Q01DX009 (ip), vehicle: distilled water + Tween-80) 182 % of control; (dose: 12.5 mg/kg/injection, schedule: Q01DX009 (ip), vehicle: distilled water + Tween-80) 88 % of control. Moreover, the T/C reads like this: (dose: 20.0 mg/kg/injection, schedule: Q01DX009 (ip), vehicle: saline with Tween-80) 160 % of control; (dose: 25.0 mg/kg/injection, schedule: Q04DX003 (ip), vehicle: distilled water + Tween-80) 106 % of control.
With `Cc1ccc(OS(=O)(=O)c2ccc([N+](=O)[O-])cc2)cc1`, the T/C was 97 % of control under setting [8], 97 % of control under setting [4] and 111 % of control under setting [5].
